The target in the assay is E3 ubiquitin-protein ligase Mdm2 (Homo sapiens, UniProt Q00987). Kind of assay: ELISA Assay: Streptavidin-coated 96-well plates are used to immobilise a biotin-tagged IP3 p53-derived peptide ([…]). This is a peptide analogue derived from the p53 binding site for MDM2 ([…]). […] Aliquots of MDM2 generated by in vitro translation are pre-incubated for 20 minutes at room temperature (i.e. 20-25C.) with test compounds and controls, before transfer into the IP3-coated 96-well plates. Background: ELISA stands for enzyme-linked immunosorbent assay.
Chain of E3 ubiquitin-protein ligase Mdm2 (Q00987 whole entry): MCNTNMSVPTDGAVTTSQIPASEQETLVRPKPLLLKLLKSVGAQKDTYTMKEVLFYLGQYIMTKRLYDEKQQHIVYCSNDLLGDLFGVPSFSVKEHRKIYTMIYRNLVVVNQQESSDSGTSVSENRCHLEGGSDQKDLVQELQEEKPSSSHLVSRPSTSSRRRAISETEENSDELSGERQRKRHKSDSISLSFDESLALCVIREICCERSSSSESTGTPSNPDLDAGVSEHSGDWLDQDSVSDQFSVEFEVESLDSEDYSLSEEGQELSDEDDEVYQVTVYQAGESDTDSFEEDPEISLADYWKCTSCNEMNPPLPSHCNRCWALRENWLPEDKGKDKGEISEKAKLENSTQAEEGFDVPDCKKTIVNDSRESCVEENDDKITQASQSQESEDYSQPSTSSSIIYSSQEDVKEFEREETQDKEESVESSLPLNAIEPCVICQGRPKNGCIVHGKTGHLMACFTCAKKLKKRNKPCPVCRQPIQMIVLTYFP

As for `O=C1c2ccccc2C(O[C@H]2CCC[C@@H](O)CCC2)(c2ccc(Cl)cc2)N1Cc1ccc([N+](=O)[O-])cc1` (stereo partly specified), the half-maximal inhibitory concentration (IC50) – broadly, the concentration that inhibits the measured activity by half – stood at 375 nM.

The values above are taken from ChEMBL document CHEMBL3639270, “Therapeutic agents” (2013).
